Source: patent US20220387369A1, “Prooxidative chain-transfer agents for use in the treatment of malignant tumour or infectious diseases” (Universitätsmedizin der Johannes Gutenberg-Universität Mainz, priority 2019, published 2022)

How the values were obtained:
[1] = test system: Native lipid membranes from rat brain; assay: Lipid peroxidation (malondialdehyde/TBARS) in native rat brain membranes; type: biochemical
Experimental: Native biological membranes from adult rat brain were prepared by differential centrifugation as described (Moosmann and Behl, Proc Nati Acad Sci USA 96:8867-8872, 1999). Samples containing 0.5 mg/ml total protein (as per bicinchoninic acid assay from Pierce, Rockford, Ill., USA) were solubilized by brief sonication in PBS (phosphate-buffered saline) and administered with the indicated concentrations of n-dodecyl thiol (12-SH; from Sigma-Aldrich, St. Louis, Mo., USA) dissolved in ethanol (final concentration: 0.1%). Subsequently, 10 μM Fe^2+/200 μM ascorbate were added as radical-initiating mix; controls received vehicle (water). After the indicated time, the reaction was stopped by adding 2.5 volumes of 5% trichloroacetic acid in 1 M acetic acid, followed by centrifugation (10,000 g for 10 min). Subsequently, thiobarbituric acid-reactive substances (TBARS) as marker of lipid peroxidation were quantified fluorimetrically as detailed before (Hajieva et al., J Neurochem 110:118-132, 2009).

HT22 cells = assay: Cytotoxic activity in cultivated HT22 cells (MTT), normoxic and hypoxic; type: cell-based, mouse; conditions: 1 day or 3 days, 20% O2 vs 1% O2, FIG. 2B
Experimental: (FIG. 2A) HT22 are a widely used, immortalized neuronal cell line that has been generated by transforming mouse neuronal tissue with the oncogenic SV40 T-antigen (Morimoto and Koshland, Neuron 5:875-880, 1990). HT22 cells were cultivated in high-glucose DMEM (Dulbecco's Modified Eagle's Medium) supplemented with 10% heat-inactivated FCS (fetal calf serum), 1 mM pyruvate, 100 mg/L streptomycin and 100 U/mL penicillin. For routine culture, cells were grown in 100 mm dishes at 37° C. in a humidified atmosphere containing 5% CO2. They were passaged three times per week on reaching approximately 90% confluence and splitted 1:10. All cell culture reagents were from Invitrogen, Carlsbad, Calif., USA.
For cell survival experiments, HT22 cells were seeded into 96-well plates at a density of ˜5000 cells per well in 0.1 mL medium. After 24 h cultivation, the cells were administered with the indicated concentrations of the tested compounds (n-octyl thiol (8-SH) or n-dodecyl thiol (12-SH)) dissolved in ethanol (final concentration: 1%). After 1 day or 3 days of incubation as indicated, cell survival was analyzed by colorimetric MTT reduction tests (MTT is 3-(4,5-dimethylthiazol-2-yl-)-2,5 diphenyltetrazolium bromide) which were performed exactly as described (Hajieva et al., J Neurochem 110:118-132, 2009). […]

[2] = test system: Primary human fibroblasts; assay: Protein polyubiquitination in diploid human fibroblasts (Western blot); type: cell-based; conditions: 500 μM, medium with 10% fetal calf serum, time course, FIG. 3C (b)
Experimental: (§1) (FIG. 3A) Normal human diploid fibroblasts were cultivated under standard conditions stimulating cell division, i.e. with 10% serum in the medium. Specifically, the cells were grown in high-glucose DMEM (Dulbecco's Modified Eagle's Medium) supplemented with 10% heat-inactivated FCS (fetal calf serum), 1× non-essential amino acid (NEAA) supplement, 1 mM pyruvate, 100 mg/L streptomycin and 100 U/mL penicillin. For cultivation, the cells were maintained at 37° C. in a humidified atmosphere containing 5% CO2. The cells were generally passaged on reaching approximately 90% confluence and were seeded, after counting of the PDLs (population doublings), in new dishes at a density of 10^6 cells per dish in 100 mm dishes, or at a density of 10^4 cells per well in 96-well plates. Cells were used for experiments at PDL 25-30. All cell culture reagents were from Invitrogen, Carlsbad, Calif., USA.
Protein polyubiquitination. Cells cultivated in 100 mm dishes for 24 h were administered with 500 μM n-dodecyl thiol (12-SH) for the indicated time before harvesting of the cells in lysis buffer (50 mM Tris-HCl, pH 7.4, 10% sucrose, 1 mM EDTA, 1 mM EGTA, 1 mM Na3VO4, 1 mM NaF, 1× protease inhibitor cocktail from Sigma-Aldrich, St. Louis, Mo., USA) followed by brief sonication and denaturation at 95° C. for 2 min. […] Densitometric quantification was performed using automated image analysis software.

C. elegans [3] = assay: 8-Isoprostane in homogenates of treated nematodes; type: in vivo, Caenorhabditis elegans; conditions: 0.1 mM or 0.5 mM, FIG. 4 (b)
Experimental: 8-Isoprostanes. Synchronized, 4-day-old adult worms distributed in cell culture flasks were administered with the indicated concentration of n-dodecyl thiol (12-SH) dissolved in ethanol (final concentration: 1%) and cultivated for 6 h or 48 has indicated. The worms were collected by centrifugation at 1200 g, washed twice with S-Basal medium, and once with DMEM medium containing 100 μM butylated hydroxytoluene (BHT). The worms were then homogenized in DMEM/BHT by sonication (3×20 s at 30 kHz on ice). Equal amounts of protein of the resulting homogenate (as per bicinchoninic acid assay from Pierce, Rockford, Ill., USA) were probed for the presence of 8-isoprostane by a commercial enzyme immunoassay (Cayman Chemicals, Ann Arbor, Mich., USA) following the manufacturer's instructions.

Drosophila melanogaster = assay: Ultrastructural effects in fruit flies in vivo (electron microscopy); conditions: 1 mM in the feed, electron micrographs
Experimental: Male Drosophila melanogaster (strain Oregon-R) were maintained at 25° C. in plastic vials covered with air-permeable lids and received standard food (50 g/L refined household sugar, 50 g/L baker's yeast, and 20 g/L agar powder). The medium was boiled under stirring, adding the following supplements at approximately 70° C.: 3 g/L methylparabene (dissolved in ethanol, final concentration: 0.15%), 3 mL/L propionic acid and the appropriate amount of n-dodecyl thiol (12-SH) dissolved in ethanol (final concentration: 0.1%). Synchronized male flies were transferred into new vials and scored for survival every other day. Treatment started on day 2 of adulthood. Electron microscopy. Flies harvested after 50 days of treatment were cryofixed by plunge freezing, cut into head, thorax and abdomen before chemical fixation for 90 min with 3% glutaraldehyde and 3% formaldehyde in PBS. The tissues were washed, fixed with 2% OsO4, washed again, dehydrated with rising concentrations of ethanol, transitionally stabilized with propylene oxide and embedded into epoxy resin essentially as described (Bozzola and Russel, Electron Microscopy: Jones and Bartlett Publishers, Inc., Sudbury, M A, 1999). The polymerized blocks were mounted, trimmed, and sectioned in an ultramicrotome before transfer onto electron microscopy grids. Images were acquired under standard conditions in a Tecnai Transmission Electron Microscope (FEI Company, Hillsboro, Oreg., USA).

C. elegans [4] = assay: Toxicity (survival) in nematodes in vivo; set-up: species or system Caenorhabditis elegans; conditions: 0.5 mM in minimum diet with varying amounts of coliform bacteria, oral, FIG. 4 (a)
Experimental: Caenorhabditis elegans N2 Bristol strain animals were expanded and cultivated at 20° C. on nematode growth medium (NGM) plates in the presence of Escherichia coli strain HB101 as food source following standard protocols (Mocko et al., Neurobiol Dis 40:120-129, 2010). For the toxicity experiments, synchronized adult worms aged 2 days were maintained in liquid culture medium (S-Basal medium supplemented with 5 mg/L cholesterol, 100 mg/L streptomycin, 100 mg/L fluorodeoxyuridine (FUDR)) to which varying amounts of Escherichia coli were added (measured as optical density (OD) at 600 nm wavelength) as described (Mair et al., PLoS One 4:e4535, 2009). Worms distributed in 48-well plates were administered with 500 μM n-dodecyl thiol (12-SH) dissolved in ethanol (final concentration: 1%) and analyzed, after the indicated time, for survival by visual inspection and mechanical stimulation (nose-touch assay) as detailed (Mocko et al., Neurobiol Dis 40:120-129, 2010).

[5] = test system: Primary human fibroblasts; assay: 8-Isoprostane release from diploid human fibroblasts; type: cell-based; conditions: 100 μM, medium with 10% fetal calf serum, time course, FIG. 3C (a)
Experimental: as §1
(FIG. 3C) 8-Isoprostanes. Cells cultivated in 96-well plates for 24 h were administered with 100 μM n-dodecyl thiol (12-SH) for the indicated time before removing the cell culture supernatant for 8-isoprostane analysis. 8-Isoprostane analysis was achieved by a commercial enzyme immunoassay (Cayman Chemicals, Ann Arbor, Mich., USA), which was conducted as detailed in the manufacturers instructions.

CCCCCCCCCCCCS [n-dodecylthiol]
extent of lipid peroxidation (as malondialdehyde) ([1]; absence of any radical initiation ("dead membranes"), FIG. 1 (a)): absence of any effect
extent of lipid peroxidation (as malondialdehyde) ([1]; low level of free radical initiator (iron/ascorbate) added, FIG. 1 (b)): massively amplified
cytotoxic effectiveness under hypoxic versus normal oxygen conditions (HT22 cells): not compromised by hypoxic conditions
amount of polyubiquitinated proteins in the cell (marker of protein damage) [2]: increased significantly within a few hours
concentration of lipid peroxidation marker 8-isoprostane in worm homogenates (C. elegans [3]): increased to a constant maximum after only 6 h
myofibrillar structure (Drosophila melanogaster; FIG. 5A): intact
ultrastructural effect on muscle mitochondria (Drosophila melanogaster; FIG. 5A): intramitochondrial, spiral multilamellar lesions
ultrastructural lesions in the nervous system (a, b) and photoreceptor cells (c) (Drosophila melanogaster; FIG. 5B): spiral multilamellar lesions of mitochondrial origin
other damage phenotype, nervous system (b) (Drosophila melanogaster; FIG. 5B (b)): vacuolization and electron-dense aggregation
other damage phenotype, photoreceptor cells (c) (Drosophila melanogaster; FIG. 5B (c)): bright lipofuscin accumulation
worms killed / toxicity in vivo (C. elegans [4]): led to death after a few days
concentration of released lipid peroxidation marker 8-isoprostane [5]: increased significantly within a few hours
